In US3984432A, “Color photographic recording material” (priority 1973, dated 1976):

Experiment: Absorption maximum after colour development in a photographic silver halide layer according to Use Example I
Type: physicochemical
Conditions: pyrazolone coupling agents
Experimental: The compounds of the formulae which follow are prepared according to methods which are in themselves known, from the corresponding 4-equivalentcoupling agents (the corresponding compounds with hydrogen in the position marked with *, in place of the substituents drawn). With regard to methods of manufacture, compare DT-OS or DT-AS 1,236,332, 2,043,271, 1,547,672 or 1,187,477. Next to the formula, the absorption maximum in nm is specified in each case (see footnote to Table I). ##SPC8##
*)After colour development of the coupling agents in a photographic silve
halide layer according to Use Example I
0.3 mmol of coupling agent of the formula (215) is dissolved in 2.0 ml of tricresyl phosphate/methylene chloride (3:7). The methylene chloride is evaporated off, 6.0 ml of an 8% strength aqueous solution of sodium isopropylnaphthalene-sulphonate, 20.0 ml of 6% strength gelatine solution and 3.4 ml of water are added and the mixture is adjusted to pH 6.5 and emulsified for 5 minutes by means of an ultrasonic apparatus with an output of 100 watt.
5.0 of coupling agent emulsion freshly treated with ultrasonics, 3.3 ml of silver bromide emulsion of pH 6.5, containing 1.4% of silver and 6.0% of gelatine, 2.0 ml of 1% strength aqueous solution of the hardener of the formula [formula] and 1.7 ml of water are mixed with one another and cast at 40°C on a substrated glass plate of size 13 cm × 18 cm. After solidifying at 10° C, the plate is dried in a drying cabinet with circulating air at 32° C.
A strip cut to 4.0 cm × 6.5 cm is exposed to 500 Lux/cm^2 under a step wedge for 2 seconds and is subsequently treated at 24° C as follows: […]

| SMILES | Abs.max., first of two maxima (subsidiary maximum) | Abs.max., second of two maxima (absorption maximum) |
| --- | --- | --- |
| CCCCOP(=O)(CCCOc1cc(OCCCP(=O)(OCCCC)OCCCC)cc(C(=O)NC2=NN(c3nc4ccccc4s3)C(=O)C2)c1)OCCCC [(257)] | 430 nm | 537 nm |
| CCCCOP(=O)(CCCOc1cc(OCCCP(=O)(OCCCC)OCCCC)cc(C(=O)Nc2cccc(C(=O)NC3=NN(c4nc5ccccc5s4)C(=O)C3)c2)c1)OCCCC [(258)] | 550 nm | 580 nm |
| CCCCC(CC)COP(=O)(CCCOc1cccc(C(=O)Nc2cccc(C(=O)NC3=NN(c4nc5ccccc5s4)C(=O)C3)c2)c1)OCC(CC)CCCC (stereo not drawn) [(259)] | 548 nm | 583 nm |
| CCCCOP(=O)(CCCOc1cc(OCCCP(=O)(OCCCC)OCCCC)cc(C(=O)Nc2cccc(C(=O)NC3=NN(c4c(C)cc(OC)cc4Cl)C(=O)C3)c2)c1)OCCCC [(260)] | 440 nm | 535 nm |
| CCCCOP(=O)(CCCOc1cc(OCCCP(=O)(OCCCC)OCCCC)cc(C(=O)Nc2cccc(C(=O)NC3=NN(c4c(C)cc(C)cc4Cl)C(=O)C3)c2)c1)OCCCC [(261)] | 440 nm | 535 nm |
| CCCCC(CC)COP(=O)(CCCOc1cccc(C(=O)Nc2cccc(C(=O)NC3=NN(c4c(C)cc(C)cc4Cl)C(=O)C3)c2)c1)OCC(CC)CCCC (stereo not drawn) [(262)] | 440 nm | 536 nm |
| CCCCC(CC)COP(=O)(CCCOc1cc(OCCCP(=O)(OCC(CC)CCCC)OCC(CC)CCCC)cc(C(=O)Nc2cccc(C(=O)NC3=NN(c4c(C)cc(C)cc4Cl)C(=O)C3)c2)c1)OCC(CC)CCCC (stereo not drawn) [(263)] | 440 nm | 534 nm |
| CCCCC(CC)COP(=O)(CCCOc1cccc(C(=O)Nc2cccc(C(=O)NC3=NN(c4c(C)cc(OC)cc4Cl)C(=O)C3)c2)c1)OCC(CC)CCCC (stereo not drawn) [(264)] | 440 nm | 536 nm |
| CCCCOP(=O)(CCCOc1cc(OCCCP(=O)(OCCCC)OCCCC)cc(C(=O)Nc2cccc(C(=O)NC3=NN(c4c(Cl)cc(Cl)cc4OC)C(=O)C3)c2)c1)OCCCC [(265)] | 436 nm | 537 nm |
| CCCCOP(=O)(CCCOc1cc(OCCCP(=O)(OCCCC)OCCCC)cc(C(=O)Nc2cccc(C(=O)NC3=NN(c4c(Cl)cc(OC)cc4Cl)C(=O)C3)c2)c1)OCCCC [(266)] | 436 nm | 540 nm |
| CCCCC(CC)COP(=O)(CCCOc1cccc(C(=O)Nc2cccc(C(=O)NC3=NN(c4c(Cl)cc(OC)cc4Cl)C(=O)C3)c2)c1)OCC(CC)CCCC (stereo not drawn) [(267)] | 436 nm | 536 nm |
| CCCCC(CC)COP(=O)(CCCOc1cccc(C(=O)Nc2cccc(C(=O)NC3=NN(c4c(Cl)cc(Cl)cc4OC)C(=O)C3)c2)c1)OCC(CC)CCCC (stereo not drawn) [(268)] | 438 nm | 540 nm |
| CCCCC(CC)COP(=O)(CCCOc1cccc(C(=O)Nc2cccc(C(=O)NC3=NN(c4c(C)cc(Cl)cc4Cl)C(=O)C3)c2)c1)OCC(CC)CCCC (stereo not drawn) [(269)] | 438 nm | 540 nm |
| CCCCC(CC)COP(=O)(CCCOc1cccc(OCC(=O)Nc2cccc(C(=O)NC3=NN(c4c(Cl)cc(Cl)cc4Cl)C(=O)C3)c2)c1)OCC(CC)CCCC (stereo not drawn) [(270)] | 438 nm | 544 nm |
| CCCCC(CC)COP(=O)(CCCOc1cccc(OCC(=O)Nc2cccc(C(=O)NC3=NN(c4c(C)cc(C)cc4Cl)C(=O)C3)c2)c1)OCC(CC)CCCC (stereo not drawn) [(271)] | 440 nm | 532 nm |
| CCCCOP(=O)(CCCOc1cc(OCCCP(=O)(OCCCC)OCCCC)cc(C(=O)Nc2cccc(C(=O)NC3=NN(c4c(C)cc(Cl)cc4Cl)C(=O)C3)c2)c1)OCCCC [(272)] | 438 nm | 540 nm |
| CCCCOP(=O)(CCCOc1cc(OCCCP(=O)(OCCCC)OCCCC)cc(C(=O)Nc2cccc(NC(=O)NC3=NN(c4c(Cl)cc(Cl)cc4Cl)C(=O)C3)c2)c1)OCCCC [(273)] | 430 nm | 547 nm |
| CCCCC(CC)COP(=O)(CCCOc1cccc(C(=O)Nc2cccc(NC(=O)NC3=NN(c4c(Cl)cc(Cl)cc4Cl)C(=O)C3)c2)c1)OCC(CC)CCCC (stereo not drawn) [(274)] | 430 nm | 546 nm |
| CCCCOP(=O)(CCCOc1cccc(C(=O)Nc2cccc(C(=O)NC3=NN(c4ccc(S(C)(=O)=O)cc4)C(=O)C3)c2)c1)OCCCC [(275)] | 440 nm | 538 nm |
| CCOP(=O)(CCCOc1cccc(NC2=NN(c3ccccc3)C(=O)C2)c1)OCC [(401)] | 429 nm | 524 nm |

| SMILES | Abs.max., first of two maxima (subsidiary maximum) | Abs.max., second of two maxima (absorption maximum) |
| --- | --- | --- |
| CCOP(=O)(CCCOc1cccc(NC2=NN(c3cccc(Cl)c3)C(=O)C2)c1)OCC [(402)] | 430 nm | 534 nm |
| CCOP(=O)(CCCOc1cccc(NC2=NN(c3c(Cl)cc(Cl)cc3Cl)C(=O)C2)c1)OCC [(403)] | 424 nm | 526 nm |
| CCOP(=O)(CCCOc1ccc(NC2=NN(c3c(Cl)cc(Cl)cc3Cl)C(=O)C2)cc1)OCC [(404)] | 425 nm | 530 nm |
| CCOP(=O)(CCCOc1ccc(NC2=NN(c3ccccc3)C(=O)C2)cc1)OCC [(405)] | 428 nm | 526 nm |
| CCOP(=O)(CCCOc1ccc(NC2=NN(c3cccc(Cl)c3)C(=O)C2)cc1)OCC [(406)] | 425 nm | 530 nm |
| CCOP(=O)(CCCc1ccc(NC2=NN(c3ccccc3)C(=O)C2)cc1)OCC [(407)] | 429 nm | 527 nm |
| CCOP(=O)(CCCc1ccc(NC2=NN(c3c(Cl)cc(Cl)cc3Cl)C(=O)C2)cc1)OCC [(408)] | 426 nm | 530 nm |
| CCCCOP(=O)(CCCOc1cccc(NC2=NN(c3c(Cl)cc(Cl)cc3Cl)C(=O)C2)c1)OCCCC [(409)] | 426 nm | 530 nm |
| CCOP(=O)(CCCc1ccc(NC2=NN(c3cccc(Cl)c3)C(=O)C2)cc1)OCC [(410)] | 438 nm | 532 nm |
| CCCCOP(=O)(CCCOc1cccc(NC2=NN(c3cccc(Cl)c3)C(=O)C2)c1)OCCCC [(411)] | 428 nm | 532 nm |
| CCCCOP(=O)(CCCOc1cccc(NC2=NN(c3ccccc3)C(=O)C2)c1)OCCCC [(412)] | 430 nm | 528 nm |
| CCCCC(CC)COP(=O)(CCCOc1cccc(NC2=NN(c3cccc(Cl)c3)C(=O)C2)c1)OCC(CC)CCCC (stereo not drawn) [(413)] | 428 nm | 533 nm |
| CCOP(=O)(CCCOc1cccc(C(=O)Nc2cccc(NC3=NN(c4ccccc4)C(=O)C3)c2)c1)OCC [(414)] | 430 nm | 530 nm |
| CCOP(=O)(CCCOc1cccc(C(=O)Nc2cccc(NC3=NN(c4c(Cl)cc(Cl)cc4Cl)C(=O)C3)c2)c1)OCC [(415)] | 426 nm | 532 nm |
| CCOP(=O)(CCCOc1cccc(C(=O)Nc2ccc(NC3=NN(c4ccccc4)C(=O)C3)cc2)c1)OCC [(416)] | 426 nm | 528 nm |
| CCCCOP(=O)(CCCOc1cccc(C(=O)Nc2ccc(NC3=NN(c4ccccc4)C(=O)C3)cc2)c1)OCCCC [(417)] | 428 nm | 530 nm |
| CCCCOP(=O)(CCCOc1cccc(C(=O)Nc2cccc(NC3=NN(c4ccccc4)C(=O)C3)c2)c1)OCCCC [(418)] | 430 nm | 530 nm |
| CCCCOP(=O)(CCCOc1cccc(C(=O)Nc2cccc(NC3=NN(c4c(Cl)cc(Cl)cc4Cl)C(=O)C3)c2)c1)OCCCC [(419)] | 427 nm | 532 nm |
| CCCCC(CC)COP(=O)(CCCOc1cccc(C(=O)Nc2ccc(NC3=NN(c4ccccc4)C(=O)C3)cc2)c1)OCC(CC)CCCC (stereo not drawn) [(420)] | 428 nm | 529 nm |
